Test results as given in patent US4477458A, “Thiazolidine derivatives and their mucolytic compositions and methods” (Camillo Corvi S.p.A., priority 1981, dated 1984).
Where a name gives a salt, the structure may show the parent alone.

Key:
[1] = test system: mucus production of rabbit; test: Activity on mucus production of rabbit (method of R. Scuri and Coll.); assay type: in vivo; conditions: for Mucoproduction at hours 0 - 4: mean ± E.S.
[2] = test system: mucus of animals made bronchitic experimentally; test: Fluidizing activity - viscosity of mucus of experimentally bronchitic animals (Contraves Rehomat microviscosimeter); assay type: in vivo, rabbit; conditions: 20 mg/kg i.v.
Description: (§1) The pharmacological activity was measured by studying the effect on the compound (CO/1177) on:
(§2) (b) viscosity of mucus of sound animals (rabbits) and/or of animals made bronchitic experimentally by using, for the viscosimeter measures, a Contraves Rehomat microviscosimeter at 15 automatic scanning speeds;

gastric mucin of the pig = test: "in vitro" viscosity of gastric mucin of the pig (Contraves Rehomat microviscosimeter); conditions: conc. 2 %; for Viscosity of gastric mucin: 0.1 ml; for Viscosity of gastric mucin, Var. %: vs Mucin + H2O
Description: The pharmacological activity was measured by studying the effect on the compound (CO/1177) on: (c) "in vitro" viscosity of gastric mucin of the pig by using, for the viscometer measures, a Contraves Rehomat microviscosimeter at 15 automatic scanning speeds.

[3] = test system: mucus of sound animals (rabbits); test: Fluidizing activity - viscosity of mucus of sound animals (Contraves Rehomat microviscosimeter); assay type: in vivo, rabbit; conditions: 20 mg/kg i.v.
Description: as §1, §2

Acute toxicity, rabbit = conditions: in vivo, iv
Acute toxicity, rat = conditions: in vivo
Description: (§3) The acute and subacute toxicity tests were performed by using Swiss mice and Wistar rats of both sexes.

Acute toxicity, mouse = conditions: in vivo
Description: as §3

[4] = Oryctolagus cuniculus, iv, 10 mg/kg i.v., 0-4 h vs -4-0 h, read-out: Mucoproduction Var. %
[5] = Oryctolagus cuniculus, po, 400 mg/kg os, 0-4 h vs -4-0 h, read-out: Mucoproduction Var. %
[6] = Oryctolagus cuniculus, po, 600 mg/kg os, 0-4 h vs -4-0 h, read-out: Mucoproduction Var. %

CC(S)C(=O)NCC(=O)O (racemic) [Mercaptopropionylglycine]
Mucoproduction at hours 0 - 4 ([1]; 10 mg/kg i.v.): 32.121 ± 1.013 mg/h | Mucoproduction at hours 0 - 4 ([1]; 20 mg/kg i.v.): 36.630 ± 1.565 mg/h | Mucoproduction at hours 0 - 4 ([1]; 400 mg/kg os): 32.053 ± 1.292 mg/h | Mucoproduction at hours 0 - 4 ([1]; 600 mg/kg os): 34.432 ± 1.813 mg/h | change in vivo at 10 mg/kg [1, 4]: 33.8% | change in vivo at 20 mg/kg ([1]; Oryctolagus cuniculus, iv, 20 mg/kg i.v., 0-4 h vs -4-0 h, read-out: Mucoproduction Var. %): 43% | change in vivo at 400 mg/kg [1, 5]: 45% | change in vivo at 600 mg/kg [1, 6]: 49.9%

CN(Cc1cc(Br)cc(Br)c1N)C1CCCCC1 [Bromexine]
Mucoproduction at hours 0 - 4 ([1]; 400 mg/kg os): 27.414 ± 1.071 mg/h | Mucoproduction at hours 0 - 4 ([1]; 600 mg/kg os): 34.440 ± 1.446 mg/h | change in vivo at 400 mg/kg [1, 5]: 31.3% | change in vivo at 600 mg/kg [1, 6]: 40.6%

O=C(O)c1ccccc1C(=O)N1CCSC1 [CO/1177, 2-(1,3-thiazolidin-3-yl)-carbonyl-benzoic acid (Na salt)]
Viscosity, time 0-24 ([2]; speed 17.4 g/min): 50.30 cps | Viscosity Var. % ([2]; speed 25 g/min): -58.4% | Viscosity, time 0-24 ([2]; speed 25 g/min): 41.5 cps | Viscosity Var. % ([2]; speed 33.6 g/min): -60% | Viscosity, time 0-24 ([2]; speed 33.6 g/min): 28.70 cps | Viscosity Var. % ([2]; speed 44.3 g/min): -56.6% | Viscosity, time 0-24 ([2]; speed 44.3 g/min): 22.4 cps | Viscosity Var. % ([2]; speed 56.1 g/min): -51.9% | Viscosity, time 0-24 ([2]; speed 56.1 g/min): 14.50 cps | Viscosity Var. % ([2]; speed 77.9 g/min): -60.9% | Viscosity, time 0-24 ([2]; speed 77.9 g/min): 10.7 cps | Viscosity Var. % ([2]; speed 113.2 g/min): -63.8% | Viscosity, time 0-24 ([2]; speed 113.2 g/min): 6.7 cps | Viscosity Var. % ([2]; speed 152 g/min): -68.1% | Viscosity, time 0-24 ([2]; speed 152 g/min): 5.2 cps | Viscosity Var. % ([2]; speed 200 g/min): -66.7% | Viscosity, time 0-24 ([2]; speed 200 g/min): 4.0 cps | Viscosity Var. % ([2]; speed 266.8 g/min): -71.8% | Viscosity, time 0-24 ([2]; speed 266.8 g/min): 2.4 cps | Viscosity Var. % ([2]; speed 352 g/min): -68.9% | Viscosity, time 0-24 ([2]; speed 352 g/min): 1.9 cps | Viscosity of gastric mucin (gastric mucin of the pig; speed 17.4 g/min): 24.87 cps | Viscosity of gastric mucin (gastric mucin of the pig; speed 25 g/min): 22.39 cps | Viscosity of gastric mucin (gastric mucin of the pig; speed 33.6 g/min): 24.05 cps | Viscosity of gastric mucin (gastric mucin of the pig; speed 44.3 g/min): 22.92 cps | Viscosity of gastric mucin (gastric mucin of the pig; speed 56.1 g/min): 23.14 cps | Viscosity of gastric mucin (gastric mucin of the pig; speed 77.9 g/min): 20.91 cps | Viscosity of gastric mucin (gastric mucin of the pig; speed 113.2 g/min): 20.88 cps | Viscosity of gastric mucin (gastric mucin of the pig; speed 152 g/min): 18.81 cps | Viscosity of gastric mucin (gastric mucin of the pig; speed 200 g/min): 17.24 cps | Viscosity of gastric mucin (gastric mucin of the pig; speed 266.8 g/min): 15.48 cps | Viscosity of gastric mucin (gastric mucin of the pig; speed 352 g/min): 14.29 cps | Viscosity of gastric mucin, Var. % (gastric mucin of the pig; speed 17.4 g/min): -10.9% | Viscosity of gastric mucin, Var. % (gastric mucin of the pig; speed 25 g/min): -19.1% | Viscosity of gastric mucin, Var. % (gastric mucin of the pig; speed 33.6 g/min): -10.1% | Viscosity of gastric mucin, Var. % (gastric mucin of the pig; speed 44.3 g/min): -14.1% | Viscosity of gastric mucin, Var. % (gastric mucin of the pig; speed 56.1 g/min): -11% | Viscosity of gastric mucin, Var. % (gastric mucin of the pig; speed 77.9 g/min): -15.4% | Viscosity of gastric mucin, Var. % (gastric mucin of the pig; speed 113.2 g/min): -8.1% | Viscosity of gastric mucin, Var. % (gastric mucin of the pig; speed 152 g/min): -9.1% | Viscosity of gastric mucin, Var. % (gastric mucin of the pig; speed 200 g/min): -8.1% | Viscosity of gastric mucin, Var. % (gastric mucin of the pig; speed 266.8 g/min): -10% | Viscosity of gastric mucin, Var. % (gastric mucin of the pig; speed 352 g/min): -7.1% | Viscosity Var. % ([3]; speed 17.4 g/min): -100% | Viscosity, time 0-24 ([3]; speed 17.4 g/min): 0 cps | Viscosity Var. % ([3]; speed 25 g/min): -81.7% | Viscosity, time 0-24 ([3]; speed 25 g/min): 0.88 cps | Viscosity Var. % ([3]; speed 33.6 g/min): -78.6% | Viscosity, time 0-24 ([3]; speed 33.6 g/min): 1.97 cps | Viscosity Var. % ([3]; speed 44.3 g/min): -71.5% | Viscosity, time 0-24 ([3]; speed 44.3 g/min): 2.00 cps | Viscosity Var. % ([3]; speed 56.1 g/min): -67.6% | Viscosity, time 0-24 ([3]; speed 56.1 g/min): 2.43 cps | Viscosity Var. % ([3]; speed 77.9 g/min): -53.6% | Viscosity, time 0-24 ([3]; speed 77.9 g/min): 2.55 cps | Viscosity Var. % ([3]; speed 113.2 g/min): -37.7% | Viscosity, time 0-24 ([3]; speed 113.2 g/min): 2.25 cps | Viscosity Var. % ([3]; speed 152 g/min): -36.3% | Viscosity, time 0-24 ([3]; speed 152 g/min): 2.18 cps | Viscosity Var. % ([3]; speed 200 g/min): -41.4% | Viscosity, time 0-24 ([3]; speed 200 g/min): 2.04 cps | Viscosity Var. % ([3]; speed 266.8 g/min): -39.2% | Viscosity, time 0-24 ([3]; speed 266.8 g/min): 1.94 cps | Viscosity Var. % ([3]; speed 352 g/min): -37.4% | Viscosity, time 0-24 ([3]; speed 352 g/min): 1.91 cps | LD50 (Acute toxicity, rabbit): ~3500 mg/kg | LD50 (Acute toxicity, rat; iv): > 5000 mg/kg | LD50 (Acute toxicity, rat; po): > 5000 mg/kg | Mucoproduction at hours 0 - 4 ([1]; 2.5 mg/kg i.v.): 52.760 ± 20.29 mg/h | Mucoproduction at hours 0 - 4 ([1]; 5 mg/kg i.v.): 37.650 ± 0.231 mg/h | Mucoproduction at hours 0 - 4 ([1]; 10 mg/kg i.v.): 49.250 ± 6.020 mg/h | Mucoproduction at hours 0 - 4 ([1]; 100 mg/kg os): 34.320 ± 5.850 mg/h | Mucoproduction at hours 0 - 4 ([1]; 200 mg/kg os): 86.250 ± 10.80 mg/h | Mucoproduction at hours 0 - 4 ([1]; 400 mg/kg os): 30.730 ± 7.630 mg/h | change in vivo at 2.5 mg/kg ([1]; Oryctolagus cuniculus, iv, 2.5 mg/kg i.v., 0-4 h vs -4-0 h, read-out: Mucoproduction Var. %): 32% | change in vivo at 5 mg/kg ([1]; Oryctolagus cuniculus, iv, 5 mg/kg i.v., 0-4 h vs -4-0 h, read-out: Mucoproduction Var. %): 34.6% | change in vivo at 10 mg/kg [1, 4]: 71% | change in vivo at 100 mg/kg ([1]; Oryctolagus cuniculus, po, 100 mg/kg os, 0-4 h vs -4-0 h, read-out: Mucoproduction Var. %): 16.3% | change in vivo at 200 mg/kg ([1]; Oryctolagus cuniculus, po, 200 mg/kg os, 0-4 h vs -4-0 h, read-out: Mucoproduction Var. %): 51.2% | change in vivo at 400 mg/kg [1, 5]: 97.6% | LD50 (Acute toxicity, mouse; iv): 3000 mg/kg | LD50 (Acute toxicity, mouse; po): > 5000 mg/kg

CC1=CCC(CC2SCCN2C(=O)c2ccccc2C(=O)[O-])C1(C)C.[Na+] (stereo not drawn) [CO/1178, 2-[(2-{2',2',3'-trimethyl-cyclopenten-3'yl}-methyl)-1,3-thiazolidin-3-yl]-carbonyl-benzoic acid, Na salt]
Mucoproduction Var. % ([1]; 10 mg/kg i.v., 0-4 h vs -4-0 h): +19.9% | Mucoproduction at hours 0 - 4 ([1]; 10 mg/kg i.v.): 26.890 ± 6.210 mg/h
